Measured values taken from ChEMBL document CHEMBL1128161, “Novel prostanoid thromboxane A2 antagonists” (Bioorg Med Chem Lett, 1995).

Assays:
[1] = target: T1, Thromboxane A2 receptor (Homo sapiens) (UniProt P21731); assay: Thromboxane A2 receptor binding affinity was evaluated, which is expressed as competition factor (CF = (IC50-test) / (IC50-standard)
T1 sequence (whole entry): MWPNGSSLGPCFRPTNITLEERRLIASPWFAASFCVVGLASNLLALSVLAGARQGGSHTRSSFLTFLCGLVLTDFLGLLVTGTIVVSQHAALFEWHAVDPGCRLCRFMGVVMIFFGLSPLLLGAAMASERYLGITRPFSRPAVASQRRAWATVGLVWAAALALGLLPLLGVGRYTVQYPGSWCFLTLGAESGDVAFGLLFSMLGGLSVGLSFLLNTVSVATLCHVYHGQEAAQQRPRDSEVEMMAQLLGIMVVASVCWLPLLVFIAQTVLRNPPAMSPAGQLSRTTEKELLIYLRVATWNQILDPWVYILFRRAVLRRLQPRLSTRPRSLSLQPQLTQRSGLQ

[2] = target: T1, Thromboxane A2 receptor (Homo sapiens); assay: Thromboxane A2 receptor binding affinity was evaluated as competition factor (CF = (IC50-test) / (IC50-standard)
Homo sapiens = species on record: Homo sapiens; assay: Compound was evaluated for the inhibition of platelet aggregation, assessed turbidimetrically in citreated human platelet rich plasma (PRP); NE means not effective; format: functional, organism-based
[3] = target: T1, Thromboxane A2 receptor (Homo sapiens); assay: Thromboxane A2 receptor binding affinity was evaluated, which is expressed as competition factor (CF = (IC50-test) / (IC50-standard); not parallel

| Structure (SMILES) | CF [1] | other results |
| --- | --- | --- |
| O=C(O)CCC/C=C\CC1=CCC[C@@H]1NS(=O)(=O)c1ccc2ccccc2c1 | 0.3 | – |
| Cc1ccc(S(=O)(=O)N[C@H]2CCC=C2C/C=C\CCC(=O)O)cc1 | 7.4 | – |
| O=C(O)CC/C=C\C[C@H]1[C@H](F)CC[C@@H]1NS(=O)(=O)c1ccc(Cl)c(Cl)c1 | – | CF [2]: 1.4 |
| O=C(O)CC/C=C\CC1=CCC[C@@H]1CNS(=O)(=O)c1ccc(F)cc1 | 21 | – |
| O=C(O)CC/C=C\C[C@@H]1[C@@H](CNS(=O)(=O)c2ccc(F)cc2)CC[C@H]1F (stereo in doubt; form 2) | 300 | – |
| Cc1ccc(S(=O)(=O)NC[C@H]2CC[C@H](F)[C@@H]2C/C=C\CCC(=O)O)cc1 | – | IC50 (Homo sapiens): Not Active; CF [3]: 6 |
| O=C(O)CCCCCC[C@@H]1[C@@H](CNS(=O)(=O)c2ccc(F)cc2)CC[C@H]1F | 260 | – |
| O=C(O)CCCCCC[C@H]1[C@H](F)CC[C@@H]1NS(=O)(=O)c1ccc(F)cc1 | 7.5 | – |
| Cc1ccc(S(=O)(=O)N[C@H]2CC[C@@H](F)[C@@H]2CCCCOCC(=O)O)cc1 | – | CF [3]: 3.5 |
| O=C(O)COCCCCC1=CCC[C@@H]1NS(=O)(=O)c1ccc(Cl)cc1 | 2.6 | IC50 (Homo sapiens): Not Active |
| O=C(O)CCCCCCC1=CCC[C@@H]1NS(=O)(=O)c1ccc(F)cc1 | 2.7 | – |
| O=C(O)CCC/C=C\CC1=CCC[C@@H]1NS(=O)(=O)c1ccc(F)cc1 (stereo in doubt) | 1.5 | – |
| O=C(O)CC/C=C\CC1=CCC[C@@H]1NS(=O)(=O)c1ccccc1 | 12 | – |
| O=C(O)COCCCCC1=CCC[C@@H]1CNS(=O)(=O)c1ccc(F)cc1 | – | CF [3]: 0.5 |
| O=C(O)CCC/C=C\CC1=CCC[C@@H]1NS(=O)(=O)c1ccccc1[N+](=O)[O-] | 6.6 | – |
| O=C(O)CCCCC[C@@H]1[C@@H](CNS(=O)(=O)c2ccc(F)cc2)CC[C@H]1F | 380 | – |
| O=C(O)CCCC=CC[C@H]1[C@H](F)CC[C@@H]1NS(=O)(=O)c1ccc(F)cc1 | 1.5 | – |
| O=C(O)COCCCC[C@H]1[C@H](F)CC[C@@H]1NS(=O)(=O)c1ccccc1 | – | CF [3]: 9.1 |

| Structure (SMILES) | CF [1] | other results |
| --- | --- | --- |
| O=C(O)CCC/C=C\C[C@H]1[C@H](F)CC[C@@H]1NS(=O)(=O)c1ccccc1[N+](=O)[O-] | 10 | – |
| Cc1ccc(S(=O)(=O)N[C@H]2CCC=C2CCCCOCC(=O)O)cc1 | 11 | – |
| O=C(O)CC/C=C/C[C@H]1[C@H](F)CC[C@@H]1NS(=O)(=O)c1ccc(F)cc1F | 6.6 | – |
| O=C(O)CC/C=C\C[C@@H]1[C@@H](CNS(=O)(=O)c2ccc(Cl)cc2)CC[C@H]1F | 40 | – |
| O=C(O)CCC/C=C\CC1=CCC[C@@H]1NS(=O)(=O)c1ccccc1 | 3.5 | – |
| O=C(O)COCCCC[C@@H]1[C@@H](CNS(=O)(=O)c2ccc(F)cc2)CC[C@H]1F | – | CF [3]: 6.7 |
| O=C(O)CC/C=C\C[C@@H]1[C@@H](CNS(=O)(=O)c2ccc(F)cc2)CC[C@H]1F | – | CF [3]: 11 |
| O=C(O)CCC/C=C\C[C@@H]1[C@@H](CNS(=O)(=O)c2ccc(F)cc2)CC[C@H]1F | 50 | – |
| O=C(O)CCC/C=C\C[C@H]1[C@H](F)CC[C@@H]1NS(=O)(=O)c1ccc(Cl)cc1 | 0.3 | – |
| O=C(O)CC/C=C\C[C@@H]1[C@@H](CNS(=O)(=O)c2ccc(Cl)cc2)CC[C@@H]1F | – | IC50 (Homo sapiens): Not Active; CF [3]: 1.8 |
| Cc1ccc(S(=O)(=O)N[C@H]2CC[C@@H](F)[C@@H]2C/C=C\CCCC(=O)O)cc1 | 1.5 | – |
| O=C(O)COCCCC[C@H]1[C@H](F)CC[C@@H]1NS(=O)(=O)c1ccccc1[N+](=O)[O-] | 330 | – |
| O=C(O)CCC/C=C\C[C@H]1[C@H](F)CC[C@@H]1NS(=O)(=O)c1ccccc1 | 4 | – |
| O=C(O)COCCCC[C@H]1[C@H](F)CC[C@@H]1NS(=O)(=O)c1ccc(F)cc1 | – | CF [3]: 2.7 |
| O=C(O)CCC/C=C\C[C@H]1[C@H](F)CC[C@@H]1NS(=O)(=O)c1ccc2ccccc2c1 | 0.3 | – |
| O=C(O)COCCCC[C@H]1[C@H](F)CC[C@@H]1NS(=O)(=O)c1ccc(F)cc1F | 30 | – |
| O=C(O)CCC/C=C\CC1=CCC[C@@H]1CNS(=O)(=O)c1ccc(F)cc1 | 17 | – |

More lines, main results first:

| CF [1] | Structure (SMILES) | other results |
| --- | --- | --- |
| 1.5 | Cc1ccc(S(=O)(=O)N[C@H]2CCC=C2C/C=C\CCCC(=O)O)cc1 | – |
| 26 | O=C(O)COCCCCC1=CCC[C@@H]1NS(=O)(=O)c1ccccc1 | – |
| 13 | O=C(O)CC/C=C\CC1=CCC[C@@H]1NS(=O)(=O)c1ccc(Cl)c(Cl)c1 | – |
| 0.8 | O=C(O)COCCCC[C@H]1[C@H](F)CC[C@@H]1NS(=O)(=O)c1ccc(Cl)cc1 | IC50 (Homo sapiens): Not Active |
| 1.3 | O=C(O)CC/C=C\C[C@H]1[C@H](F)CC[C@@H]1NS(=O)(=O)c1ccc(Cl)cc1 | – |
| 1.5 | O=C(O)CCC/C=C\CC1=CCC[C@@H]1NS(=O)(=O)c1ccc(F)cc1 (stereo in doubt; 3d) | – |
| 11 | O=C(O)CC/C=C\C[C@@H]1[C@@H](CNS(=O)(=O)c2ccc(F)cc2)CC[C@@H]1F | – |
| 1.5 | O=C(O)CCC/C=C\CC1=CCC[C@@H]1NS(=O)(=O)c1ccc(F)cc1F | IC50 (Homo sapiens): Not Active |
| 5.5 | O=C(O)CC/C=C\CC1=CCC[C@@H]1NS(=O)(=O)c1ccc(F)cc1 | – |
| 1.1 | O=C(O)CCC/C=C\C[C@H]1[C@H](F)CC[C@@H]1NS(=O)(=O)c1ccc(F)cc1F | – |
| 1.5 | O=C(O)CCC/C=C\C[C@H]1[C@H](F)CC[C@@H]1NS(=O)(=O)c1ccc(F)cc1 | – |
| 0.3 | O=C(O)CCC/C=C\CC1=CCC[C@@H]1NS(=O)(=O)c1ccc(Cl)cc1 | IC50 (Homo sapiens): Not Active |
| 13 | O=C(O)COCCCCC1=CCC[C@@H]1NS(=O)(=O)c1ccc(F)cc1 | – |
| 1.1 | O=C(O)CCC/C=C\CC1=CCC[C@@H]1NS(=O)(=O)c1ccc(Cl)c(Cl)c1 | IC50 (Homo sapiens): Not Active |
| 300 | O=C(O)CC/C=C\C[C@@H]1[C@@H](CNS(=O)(=O)c2ccc(F)cc2)CC[C@H]1F (stereo in doubt; form 1) | – |
| 10 | O=C(O)CC/C=C\C[C@H]1[C@H](F)CC[C@@H]1NS(=O)(=O)c1ccccc1 | – |
| 340 | O=C(O)CCC/C=C\C[C@H]1[C@H](F)CC[C@@H]1NS(=O)(=O)c1cccc2cccnc12 | – |
| 0.5 | O=C(O)CCC/C=C\C[C@H]1[C@H](F)CC[C@@H]1NS(=O)(=O)c1ccc(Cl)c(Cl)c1 | – |
| 370 | O=C(O)CC/C=C\C[C@H]1[C@H](F)CC[C@@H]1NS(=O)(=O)c1ccccc1[N+](=O)[O-] | – |
| 5.1 | Cc1ccc(S(=O)(=O)N[C@H]2CC[C@@H](F)[C@@H]2C/C=C\CCC(=O)O)cc1 | – |
| 560 | O=C(O)CCCC=CCC1=CCC[C@@H]1NS(=O)(=O)c1cccc2cccnc12 | – |
| 40 | O=C(O)CC/C=C\CC1=CCC[C@@H]1NS(=O)(=O)c1ccccc1[N+](=O)[O-] | – |
| 14 | O=C(O)CC/C=C\CC1=CCC[C@@H]1NS(=O)(=O)c1ccc(F)cc1F | – |
| 2.8 | O=C(O)CC/C=C\CC1=CCC[C@@H]1NS(=O)(=O)c1ccc(Cl)cc1 | – |
| 22 | O=C(O)COCCCCC1=CCC[C@@H]1NS(=O)(=O)c1ccc(F)cc1F | – |
| 130 | O=C(O)COCCCCC1=CCC[C@@H]1NS(=O)(=O)c1ccccc1[N+](=O)[O-] | – |
| 2.3 | O=C(O)COCCCC[C@H]1[C@H](F)CC[C@@H]1NS(=O)(=O)c1ccc(Cl)c(Cl)c1 | IC50 (Homo sapiens): Not Active |
| 7.6 | O=C(O)COCCCCC1=CCC[C@@H]1NS(=O)(=O)c1ccc(Cl)c(Cl)c1 | – |
| 4.3 | O=C(O)CC/C=C\C[C@H]1[C@H](F)CC[C@@H]1NS(=O)(=O)c1ccc(F)cc1 | – |
| 154 | Cc1ccc(S(=O)(=O)NC[C@H]2CC[C@@H](F)[C@@H]2C/C=C\CCC(=O)O)cc1 | – |
